# Reference: PMC3838870 (Journal of inorganic biochemistry, 2013)
# Like-named read-outs stand apart in the source and are kept apart here.
# Assays:
# [1] = Chelator-induced erythrocyte hemolysis; assay type: cell-based, human; settings: human, human erythrocyte suspension, pH 7.4
# [2] = test system: chloroquine-sensitive (3D7) Plasmodium falciparum; assay: Parasite growth inhibition, [3H]-hypoxanthine incorporation, 3D7; assay type: cell-based
# [3] = test system: chloroquine-resistant (7G8) Plasmodium falciparum; settings: read-out: Growth inhibition efficacy (IC50), 7G8 P. falciparum; chloroquine-resistant 7G8, mean ± SD (n = 6); previously reported; cited from earlier work
# [4] = test system: chloroquine-sensitive (3D7) Plasmodium falciparum; settings: read-out: IC50, 3D7 malaria strain; cited from earlier work
# [5] = test system: non-parasitized human erythrocytes; assay: Effect of chelators on erythrocyte shape; assay type: cell-based; settings: 2.5–15 μM chelator, 48 h, Giemsa staining
# human erythrocytes = assay: Chelator-induced erythrocyte hemolysis; assay type: cell-based; settings: control 0.0175± 0.0005
# [6] = test system: synchronized chloroquine-sensitive P. falciparum (3D7); assay: Stage-specific parasite growth; assay type: cell-based, Plasmodium falciparum; settings: chelator 7.5 μM, 3D7 synchronized at ring-stage
SMILES,hemolysis at 10 μM [1],hemolysis at 20 μM [1],hemolysis at 30 μM [1],hemolysis at 45 μM [1],hemolysis at 60 μM [1],"IC50 ([2]; Plasmodium falciparum, 3D7, 48 h, read-out: Growth inhibition efficacy (IC50), 3D7 P. falciparum)","IC50 ([2]; Plasmodium falciparum, 3D7, 48 h, read-out: Growth inhibition efficacy (IC50), 3D7 P. falciparum, chloroquine-sensitive 3D7, 48 h culture, mean ± SD (n = 6))",IC50 [3],hemolysis at 15 μM [1],hemolysis at 25 μM [1],IC50 [4],Effect on erythrocyte shape [5],"Supernatant hemoglobin, % MCHC (hemolysis) (human erythrocytes; chelator 0.5 μM)","Supernatant hemoglobin, % MCHC (hemolysis) (human erythrocytes; chelator 1 μM)","Supernatant hemoglobin, % MCHC (hemolysis) (human erythrocytes; chelator 1.5 μM)","Supernatant hemoglobin, % MCHC (hemolysis) (human erythrocytes; chelator 2 μM)","Supernatant hemoglobin, % MCHC (hemolysis) (human erythrocytes; chelator 3 μM)","IC50 ([2]; read-out: Growth inhibition efficacy (IC50), 3D7 P. falciparum, chloroquine-sensitive 3D7, 48 h culture, mean ± SD (n = 6))","% Inhibition, rings, 24 hour culture [6]"
"CC(=O)N(O)CCCCCNC(=O)CCC(=O)N(O)CCCCCNC(=O)CCC(=O)N(O)CCCCCN [DFO, desferrioxamine]",0.0193 ± 0.0005%,0.0182 ± 0.0005%,0.0186 ± 0.0008%,0.0192 ± 0.0001%,0.0182 ± 0.0002%,23.4 ± 3.4 µM,23.5 µM,18.5 µM,–,–,–,–,–,–,–,–,–,–,–
"Cc1ncc(CO)c(/C=N/NC(=O)c2ccncc2)c1O [PIH, pyridoxal isonicotinoyl hydrazone]",0.0195 ± 0.0004%,0.019 ± 0.0006%,0.0192 ± 0.0008%,–,–,–,–,–,0.0188 ± 0.0003%,0.0193 ± 0.0004%,50 µM,–,–,–,–,–,–,–,–
"O=C(NN=Cc1c(O)ccc2ccccc12)c1ccncc1 [compound 311, 2-hydroxy-1-naphthylaldehyde isonicotinoyl hydrazone]",–,–,–,–,–,–,–,4.46 ± 0.3 µM,–,–,–,no apparent effect on erythrocyte shape,0.0193±0.0005 % MCHC,0.0195±0.0010 % MCHC,0.0200±0.0006 % MCHC,0.0203±0.0005 % MCHC,0.0197±0.0005 % MCHC,4.45 ± 1.7 µM,99 ± 8.4%
